Source: patent publication US8263642B2, “Antimicrobial compounds and methods of use thereof” (Vanderbilt University, priority 2008, dated 2012)

Columns and labels:
[1] = test system: HssRS-dependent hrtAB expression; test: Luminescence-based assay to monitor HssRS-dependent hrtAB expression (phrtABlux reporter), Newman; type: cell-based, Staphylococcus aureus; conditions: Newman; for Luminescence: raw luminescence value obtained in a luminometer; for activation at 0.0825 µM: Staphylococcus aureus, NEWMAN, read-out: % Lumi, luminescence induced by the compound compared to the heme control (82.5 nM) in the same plate
Procedure: (§1) With reference to Table 1, “Luminescence” refers to the raw luminescence value obtained in a luminomter. “Control (82.5 nm)” refers to the luminescence value obtained from heme at 82.5 nM as a positive control in the same plate as the experimental. “% lum” is the percentage of luminescence induced by the compound as compared to the heme control in the same plate. […] All of these assays are described in the application. […] “N/T” indicates the test was not performed.
A hrtAB-driven expression system was created in the pXen vector system (Xenogen) (Francis, K. P., D. Joh, C. Bellinger-Kawahara, M. J. Hawkinson, T. F. Purchio, and P. R. Contag. 2000. Monitoring bioluminescent Staphylococcus aureus infections in living mice using a novel luxABCDE construct. Infect Immun 68:3594-3600). This vector contains a promoterless luxCDABE operon from Photorabdus luminescens which produces blue green light when expressed. The luxCDABE encodes for a fatty acid reductase (LuxCDE) that produces a long chain fatty aldehyde which, when combined with cellular flavin mononucleotide, is oxidized by a luciferase (LuxAB) to produce light. Therefore, this system is useful in that it bypasses the need for substrate addition and is capable of generating light in the absence of any added reagents. Furthermore, the luminescent signal produced by the combined activities of LuxAB and LuxCDE is of sufficient intensity to be visualized in unmanipulated intact bacteria.
To establish an assay that measures HssRS-dependent expression of luxCDABE, the promoter for hrtAB upstream of luxCDABE was cloned and transformed this vector (phrtABlux) into wildtype and ΔhssR S. aureus. A promoterless vector (plux) and a plasmid containing luxCDABE under the control of a constitutive promoter (psrtAlux) (Mazmanian, S. K., G. Liu, H. Ton-That, and O. Schneewind. 1999. “Staphylococcus aureus sortase, an enzyme that anchors surface proteins to the cell wall.” Science 285:760-763) were included as negative and positive controls, respectively. Initially, wildtype S. aureus harboring either plux, phrtABlux, or psrtAlux were plated on solid medium that either lacked heme or contained 4 μM heme. Only wildtype S. aureus containing psrtAlux produced light on solid media regardless of the presence or absence of heme. […] Light was not produced by bacteria containing plux in either condition.
To adapt this system for a HTS to measure ligand recognition by HssRS, luminescence of wildtype and ΔhssR harboring the above listed plasmids in liquid media with or without heme was measured. […] Taken together, these experiments establish a whole cell […] assay that can identify small molecule modifiers of HssRS. This screen, in some aspects, can identify molecules that can be used as molecular probes in structure-function analyses to determine the mechanism by which S. aureus sense host heme.
Upon staphylococcal exposure to heme, HssRS senses heme and activates expression of hrtAB. This process can be measured using a reporter assay that employs a vector encoding the light-producing luxCDABE operon under the control of the hrtAB promoter. This assay results in whole cell luminescence upon HssRS-dependent activation of hrtAB, forming the foundation for the development of an assay suitable for high-throughput screens for small molecule activators of HssRS.
To develop an automated HTS format, S. aureus wildtype and ΔhssR harboring reporter constructs (psrtAlux, phrtAlux, plux) can be grown for 15 hours at 37° C. in tryptic soy broth (TSB) containing 10 μg/ml chloramphenicol. The addition of chloramphenicol is useful to ensure that the staphylococci propagate the reporter plasmid upon cell division. Following growth, bacterial cultures can be normalized and 2×10^7 cells (approximately 2 μl) can be added to individual wells of black walled, clear bottomed, 96-well plates. […]

[2] = test system: hrtAB-driven expression of the xylE reporter gene; test: XylE reporter assay (hrtAB promoter-xylE), Newman; type: cell-based, Staphylococcus aureus; conditions: for XylE (0.05): level of XylE induction at 0.05 uM of the compound; for XylE (0.5): level of XylE induction at 0.5 uM of the compound; for XylE (5.0): level of XylE induction at 5.0 uM of the compound; for XylE (50.0): level of XylE induction at 50.0 uM of the compound
Procedure: as §1
Compounds that activate HssRS-driven hrtAB expression in the luciferase-based screen can be subjected to two separate counter screens to confirm these compounds as active hits. First, compounds of interest can be tested for their ability to activate expression of hrtAB in the XylE expression assay described hereinbelow. This is an in vitro assay that measures hrtAB-driven expression of the xylE reporter gene. The XylE-based reporter assay utilizes slightly more manipulations than the primary luciferase-based screen. […] It should be appreciated that a shortcoming of this counter screen is that it measures reporter gene expression, which is a similar activity as that measured in the primary assay. To address this shortcoming, compounds that are positive in both XylE- and luciferase-based assays can be subjected to a second counter screen as described hereinbelow.
S. aureus strains harboring the appropriate reporter construct were inoculated into 500 μl of TSB containing 10 μg/ml chloramphenicol in 1.5 ml tubes. Cultures were grown O/N at 37° C. with shaking. Bacteria were pelleted by centrifugation and spent medium was aspirated. The pellet was washed once with 500 μl of 20 mM potassium phosphate, pH 7.6, and resuspended in 150 μl of 100 mM potassium phosphate buffer, pH 8.0, 10% (v/v) acetone, 25 μg/ml lysostaphin. After 20 minute incubation at 37° C. and 5 minute incubation on ice, samples were centrifuged at 20,000 g for 30 minutes at 4° C. 1-10 μl of supernatant was added to a 96-well plate and 200 μl of 100 mM potassium phosphate, pH 8.0, 0.2 mM pyrocatechol was added to each well. Formation of 2-hydroxymuconic semialdehyde was tracked by measuring the absorbance at 375 nm every minute for 30 minutes on a Varian MP 50 microplate reader. Protein concentration in samples was determined by BCA (Pierce). One unit of specific activity of XylE in a sample is defined as the formation of 1 nmol of 2-hydroxymuconic semialdehyde per minute per milligram of cellular protein at 30° C. (Chien, Y., Manna, A. C., Projan, S. J., and Cheung, A. L. 1999, “SarA, a global regulator of virulence determinants in Staphylococcus aureus, binds to a conserved motif essential for sar-dependent gene regulation. J. Biol. Chem. 274, 37169-37176).
The hrtAB intergenic region was fused to the xylE structural gene by PCR-SOE. In the first reaction, primer P1B:[…] and P2B:[…] were used to amplify the hrtAB intergenic region from S. aureus strain Newman genomic DNA. In the second PCR reaction primers P3B:[…] and P4B:[…] were used to amplify the xylE structural gene using pALC1639 template DNA (provided by Dr. Ambrose Cheung) and PCR product purified using a Qiagen gel extraction kit. For the PCRSOE reaction, a 1:300 dilution of purified reaction 1 and reaction 2 PCR products was mixed and amplified by PCR using […]. This yielded a construct in which the hrtAB intergenic region is fused to the xylE gene in such a manner that the position of the start codon for xylE corresponds to the position of the start codon for […] in the hrtAB locus. The hrtAB promoter-xylE fusion DNA was then subcloned into pOS1. As a control we also constructed a promoterless xylE vector. The xylE gene was amplified from pACL1639 template DNA using the primers P1C:[…] and P2C:[…] and then cloned into the pOS1 vector.

SMILES	Luminescence [1]	XylE (0.05) [2]	XylE (0.5) [2]	XylE (5.0) [2]	XylE (50.0) [2]	activation at 0.0825 µM [1]
Cc1ccc(O)c(NC(=O)c2nn3c(c2Br)NC(c2ccco2)CC3C(F)(F)F)c1 (stereo not drawn) [drawing 60]	1949	0.07	0.7	11	1	–
CCN(CC)S(=O)(=O)c1cc(C(=O)NC2CCCCCC2)ccc1Cl	2080	1	1	1	0.05	759%
CC1(C)CC(=O)C(=CNCc2ccc(F)cc2)C(=O)C1	1003	0.07	0.09	0.9	0.06	120%
COC(=O)CCNc1nc(-c2ccc(Br)cc2)nc2ccccc12	1714	–	0.03	0.02	0.8	484%
CSc1ccc(NC=C2C(=O)CC(C)(C)CC2=O)cc1	1347	0.04	0.05	0.01	1	161%
O=C(Nc1ccc(/N=N/c2ccccc2)cc1)c1cccnc1	3086	0	1	1	0.7	–
NS(=O)(=O)c1ccc(NC(=O)CCCOc2ccc(Cl)cc2Cl)cc1	325	0.03	0.05	3	0	45.6%
COc1ccc(OC(=O)c2ccc(N3C(=O)C4C5CCC(C5)C4C3=O)cc2)cc1 (stereo not drawn)	3096	–	0.09	0.03	0.02	–
CCc1ccccc1NC(=O)C1CCCCC1C(=O)O (stereo not drawn)	576	1	0.05	0.02	1	136%
Cc1cccc(NC(=O)c2cc3ccccc3cc2O)c1	794	0.02	0.09	0.1	0.02	217%
COc1cccc(-c2cc(C(=O)Nc3ccccc3C(F)(F)F)c3ccccc3n2)c1	1642	–	0	0.05	0.09	450%
C=CCc1ccccc1Oc1ccc(C(F)(F)F)cn1	1474	0.08	0.02	0.07	0.09	27.5%
FC(F)(F)c1cccc(Nc2nc(-c3cccnc3)nc3ccccc23)c1	1616	–	0.02	0.05	0.02	–
Cc1ccc2c(c1)C(c1ccccc1)=NNC(c1ccccc1)=N2	2763	–	0	0.2	0.4	–
Cc1c(-c2ccccc2)nc2ccccc2c1C(=O)Nc1ccccc1C(F)(F)F	2424	0.5	0.7	0.03	0.02	–
COc1ccccc1N1C(=O)c2ccc(C(=O)OC(C)C(=O)c3ccc(C)cc3)cc2C1=O (stereo not drawn)	3189	1	0.6	0.7	1	–
Cc1ccc(Nc2nc(-c3ccccc3O)nc3ccccc23)cc1	1922	–	0.04	0.1	0.08	360%
Cc1ccc(-c2nc(Nc3ccc4c(c3)OCO4)c3ccccc3n2)cc1	2101	–	0.04	0	0	–
CCOc1ccc(NC(=O)c2sc3nc(C)nc(N4CCCCC4)c3c2C)cc1	2277	1	0.07	1	1	–
CCCCCCC(=O)NC(NC(=S)Nc1ccccc1O)C(Cl)(Cl)Cl (stereo not drawn)	2766	0.5	0.2	0.04	0.03	–
CCOC(=O)c1c(NC(=O)C2CCCCC2)sc(C(=O)Nc2ccc(C)c(Cl)c2)c1C	2374	8	2	1	1	–
CC(/C=N/NC(=O)C1COc2ccccc2O1)=C\c1ccccc1 (stereo not drawn)	507	0.07	0.04	0.2	0.05	139%
COc1ccc(CN2CCCN(C)CC2)c(C)c1C	534	0	0	1	1	127%
Brc1ccc(CN2CCN(c3ccccc3)CC2)o1	166	0.07	0.05	1	0.02	39.3%
